± gives the expanded uncertainty stated by the source. Each block holds one compound with its values, some of them ahead of it.
Experiment: xn = mol fraction of the nth substance listed
Conditions: 279.15 K, 101 kPa, Liquid

mass density (x1 = 0.018): 1008.9 ± 3.2 kg/m3
speed of sound (x1 = 0.018): 1490 ± 12 m/s
mass density (x1 = 0.048): 1021 ± 3.3 kg/m3
speed of sound (x1 = 0.048): 1544.4 ± 13 m/s
mass density (x1 = 0.077): 1031.1 ± 3.4 kg/m3
speed of sound (x1 = 0.077): 1580 ± 13 m/s
mass density (x1 = 0.096): 1035.1 ± 3.5 kg/m3
speed of sound (x1 = 0.096): 1590.4 ± 13 m/s
mass density (x1 = 0.24): 1051.2 ± 4.1 kg/m3
speed of sound (x1 = 0.24): 1587.6 ± 13 m/s
mass density (x1 = 0.387): 1052.8 ± 4.9 kg/m3
speed of sound (x1 = 0.387): 1531.6 ± 13 m/s
mass density (x1 = 0.595): 1051.7 ± 6.3 kg/m3
speed of sound (x1 = 0.595): 1479.4 ± 13 m/s
Structure (SMILES): C1COCCO1 [1,4-dioxane] + O

mass density (x1 = 0.046): 996.6 ± 5.9 kg/m3
speed of sound (x1 = 0.046): 1571.5 ± 13 m/s
mass density (x1 = 0.086): 994.4 ± 5.9 kg/m3
speed of sound (x1 = 0.086): 1610.7 ± 13 m/s
mass density (x1 = 0.19): 979 ± 6.2 kg/m3
speed of sound (x1 = 0.19): 1554 ± 13 m/s
mass density (x1 = 0.33): 970.5 ± 6.7 kg/m3
speed of sound (x1 = 0.33): 1474.2 ± 12 m/s
mass density (x1 = 0.54): 934 ± 7.4 kg/m3
speed of sound (x1 = 0.54): 1420.7 ± 12 m/s
mass density (x1 = 0.74): 919.2 ± 8.6 kg/m3
speed of sound (x1 = 0.74): 1396.7 ± 12 m/s
Structure (SMILES): C1CCOC1 [tetrahydrofuran] + O

mass density (x1 = 0.053): 986.6 ± 3.2 kg/m3
speed of sound (x1 = 0.053): 1540 ± 13 m/s
mass density (x1 = 0.091): 974.3 ± 3.2 kg/m3
speed of sound (x1 = 0.091): 1549.6 ± 13 m/s
mass density (x1 = 0.146): 955.5 ± 3.3 kg/m3
speed of sound (x1 = 0.146): 1511.8 ± 13 m/s
mass density (x1 = 0.187): 941.9 ± 3.3 kg/m3
speed of sound (x1 = 0.187): 1476.2 ± 12 m/s
mass density (x1 = 0.296): 909.5 ± 3.6 kg/m3
speed of sound (x1 = 0.296): 1451 ± 12 m/s
mass density (x1 = 0.376): 888.4 ± 3.8 kg/m3
speed of sound (x1 = 0.376): 1425 ± 12 m/s
mass density (x1 = 0.518): 859 ± 4.2 kg/m3
speed of sound (x1 = 0.518): 1387.2 ± 12 m/s
mass density (x1 = 0.692): 831.5 ± 4.9 kg/m3
speed of sound (x1 = 0.692): 1352 ± 12 m/s
mass density (x1 = 0.889): 807.2 ± 5.9 kg/m3
speed of sound (x1 = 0.889): 1321 ± 12 m/s
Structure (SMILES): CC#N [acetonitrile] + O

mass density (x2 = 0): 999.9 ± 5.8 kg/m3
speed of sound (x2 = 0): 1433 ± 12 m/s
Structure (SMILES): O [water] + C1CCOC1

mass density (x1 = 0.023): 1000.9 ± 3.2 kg/m3
speed of sound (x1 = 0.023): 1511.6 ± 13 m/s
mass density (x1 = 0.0485): 1002.9 ± 3.2 kg/m3
speed of sound (x1 = 0.0485): 1578.6 ± 13 m/s
mass density (x1 = 0.0714): 1005.2 ± 3.3 kg/m3
speed of sound (x1 = 0.0714): 1625 ± 13 m/s
mass density (x1 = 0.0972): 1007.3 ± 3.4 kg/m3
speed of sound (x1 = 0.0972): 1664.6 ± 14 m/s
mass density (x1 = 0.2457): 1009.7 ± 3.9 kg/m3
speed of sound (x1 = 0.2457): 1748 ± 14 m/s
mass density (x1 = 0.3865): 1002.2 ± 4.5 kg/m3
speed of sound (x1 = 0.3865): 1714.6 ± 14 m/s
mass density (x1 = 0.5924): 986.6 ± 5.7 kg/m3
speed of sound (x1 = 0.5924): 1646 ± 14 m/s
mass density (x1 = 0.844): 970 ± 7.6 kg/m3
speed of sound (x1 = 0.844): 1564 ± 14 m/s
Structure (SMILES): CN(C)C=O [dimethylformamide] + O

mass density (x2 = 0): 999.9 ± 3.1 kg/m3
speed of sound (x2 = 0): 1430.4 ± 12 m/s
Structure (SMILES): O [water] + C1COCCO1

mass density (x2 = 0): 999.9 ± 3.1 kg/m3
speed of sound (x2 = 0): 1430.4 ± 12 m/s
Structure (SMILES): O [water] + CN(C)C=O

mass density (x2 = 0): 999.9 ± 3.1 kg/m3
speed of sound (x2 = 0): 1430.4 ± 12 m/s
Structure (SMILES): O [water] + CC#N

From the NIST ThermoML archive (doi:10.1016/j.jct.2006.08.007)
